Measurements reported in ChEMBL document CHEMBL1130043, “Chemometric methodologies in a quantitative structure-activity relationship study: the antibacterial activity of 6-aminoquinolones” (1997).

Tests used:
Format in all cases: functional
[1] = test system: Escherichia coli; assay: Antibacterial activity against Escherichia coli ISF 432(Gram negative) strain.
[2] = test system: Staphylococcus aureus; assay: Antibacterial activity against Staphylococcus aureus ATCC 6538 (Gram positive) strain.
[3] = test system: Staphylococcus epidermidis; assay: Antibacterial activity against Staphylococcus epidermidis HCF Berset C (Gram positive) strain.
[4] = test system: Enterococcus faecalis; assay: Antibacterial activity against Streptococcus faecalis LEP Br (Gram positive) strain.
[5] = test system: Acinetobacter calcoaceticus; assay: Antibacterial activity against Acinetobacter calcoaceticus OSMPV 113 (Gram negative) strain.
[6] = test system: Enterobacter cloacae; assay: Antibacterial activity against Enterobacter cloacae OMNFI 174 (Gram negative) strain.
[7] = test system: Pseudomonas aeruginosa; assay: Antibacterial activity against Pseudomonas aeruginosa ATCC 9027(Gram negative) strain.
[8] = test system: Escherichia coli; assay: Antibacterial activity against Escherichia coli ATCC 8739(Gram negative) strain.
[9] = test system: Providencia stuartii; assay: Antibacterial activity against Providencia stuartii CNUR 5(Gram negative) strain.
[10] = test system: Klebsiella pneumoniae; assay: Antibacterial activity against Klebsiella pneumoniae ATCC 10031 (Gram negative) strain.
[11] = test system: Shigella; assay: Antibacterial activity against Shigella enteritidis (Gram negative) strain.
[12] = test system: Staphylococcus epidermidis; assay: Antibacterial activity against Staphylococcus epidermidis CPHL A2 (Gram positive) strain, activity is expressed as log2MIC.
[13] = test system: Staphylococcus aureus; assay: Antibacterial activity against Staphylococcus aureus MPR 5 (Gram positive) strain.

Compound	Log2 MIC [1]	Log2 MIC [2]	Log2 MIC [3]	Log2 MIC [4]	Log2 MIC [5]	Log2 MIC [6]	Log2 MIC [7]	Log2 MIC [8]	Log2 MIC [9]	Log2 MIC [10]	Log2 MIC [11]	Log2 MIC [12]	Log2 MIC [13]
CN1CCN(c2cc3c(cc2N)c(=O)c(C(=O)O)cn3C2CC2)CC1	12	6	5	2	2	9	5	9	4	12	9	6	6
Nc1cc2c(=O)c(C(=O)O)cn(C3CC3)c2c(F)c1N1CCSCC1	11	8	7	5	7	7	5	10	8	12	5	8	9
NCCN1CCN(c2cc3c(cc2N)c(=O)c(C(=O)O)cn3C2CC2)CC1	8	0	2	0	2	6	2	8	0	8	6	1	0
CN1CCN(c2c(N)c(N)c3c(=O)c(C(=O)O)cn(C4CC4)c3c2F)CC1	12	6	5	5	6	10	5	12	6	12	9	5	6
Nc1cc2c(=O)c(C(=O)O)cn(C3CC3)c2cc1N1CCSCC1	12	8	6	4	7	8	6	12	7	12	8	7	8
CC(C)(C)n1cc(C(=O)O)c(=O)c2cc(N)c(N3CCCC3)cc21	10	5	4	0	3	3	1	10	1	10	2	4	4
Nc1cc2c(=O)c(C(=O)O)cn(C3CC3)c2cc1NC1CC1	5	0	0	0	0	1	0	6	0	6	1	0	0
Nc1cc2c(=O)c(C(=O)O)cn(C3CC3)c2cc1N1CCCC1	9	0	0	0	0	4	0	9	0	9	3	0	0
CC(C)(C)n1cc(C(=O)O)c(=O)c2cc(N)c(N3CCSCC3)cc21	12	9	8	4	8	6	5	11	5	12	6	8	9
Cc1c(N2CCNCC2)c(N)cc2c(=O)c(C(=O)O)cn(C3CC3)c12	12	6	4	3	6	11	7	12	6	12	12	5	5
Nc1cc2c(=O)c(C(=O)O)cn(C3CC3)c2cc1N1CCC(O)CC1	12	5	5	4	0	6	4	12	4	12	6	6	5
Nc1cc2c(=O)c(C(=O)O)cn(C3CC3)c2cc1N1CCSC1	7	1	1	0	0	3	0	8	0	8	2	1	0
Cc1c(N2CC(C)NC(C)C2)c(N)cc2c(=O)c(C(=O)O)cn(C3CC3)c12 (stereo unspecified)	12	7	6	3	6	8	6	11	6	12	9	7	7
CC(C)(C)n1cc(C(=O)O)c(=O)c2cc(N)c(N3CCc4ccccc43)cc21	10	6	5	1	4	4	2	10	5	10	4	5	6
N#CCN1CCN(c2cc3c(cc2N)c(=O)c(C(=O)O)cn3C2CC2)CC1	6	1	1	1	1	6	2	5	1	6	6	1	1
CC(C)(C)n1cc(C(=O)O)c(=O)c2cc(N)c(N3CCN(c4ccccn4)CC3)cc21	8	7	6	3	7	1	0	8	0	9	1	7	7
CC1CN(c2cc3c(cc2N)c(=O)c(C(=O)O)cn3C2CC2)CC(C)N1 (stereo unspecified)	12	4	5	2	4	8	6	12	5	12	9	6	4
CN1CCN(c2c(N)cc3c(=O)c(C(=O)O)cn(C4CC4)c3c2F)CC1	11	5	4	1	4	9	6	7	5	11	8	5	5
CN1CCN(c2nc3c(cc2N)c(=O)c(C(=O)O)cn3C2CC2)CC1	12	5	5	0	5	10	6	10	6	12	10	5	5
CC1CN(c2cc3c(cc2N)c(=O)c(C(=O)O)cn3C2CC2)CCN1 (stereo unspecified)	12	3	5	2	3	9	6	12	3	12	9	5	3
CC(C)(C)n1cc(C(=O)O)c(=O)c2cc(N)c(N3CCc4ccccc4C3)cc21	10	9	7	4	6	4	2	10	5	10	4	8	8
Nc1cc2c(=O)c(C(=O)O)cn(C3CC3)c2cc1N1CCNCC1	12	1	3	0	3	9	6	9	2	9	8	3	1
